Source: article PMC4955970, “Stable, synthetic analogs of diadenosine tetraphosphate inhibit rat and human P2X3 receptors and inflammatory pain” (Molecular Pain, 2016)
“And” between values parts separate entries of the source, which are not always exact repeats. Equal values may be shown once. Read-outs that look alike come from different tables or passages of the source.

How the values were obtained:
[1] = tested on: CFA-induced thermal hyperalgesia; assay: Hargreaves plantar test, CFA-induced thermal hyperalgesia; type: in vivo, rat; settings: 20 µM; for period after intraplantar injection in which antinociceptive effect was observed: inflamed hindpaw
Description: To induce chronic inflammatory hyperalgesia, rats were injected with complete Freund’s adjuvant (CFA, 100 μl of 50% solution) into the plantar surface of the right hindpaw 24 h prior to testing. Control animals were injected with 100 μl of pure saline. Injections of AppCH2ppA and AppNHppA (100 nM–100 μM) in 100 μl of 0.9% saline were made just before the beginning of the plantar test.
For intrathecal injection, a polyethylene-10 catheter was inserted into the rat’s subarachnoid space through a small incision at the cisterna magna, and the tip of the catheter was implanted at the L4 spinal segmental level. Animals were allowed to recover for at least four days before behavior tests. AppCH2ppA or vehicle (saline) was injected intrathecally (10 µl) and flushed with 10 µl of saline.
The Hargreaves technique[51] was used for thermal hyperalgesia studies (using the Ugo Basile Model 7370 Plantar Test). Paw withdrawal responses to noxious heat stimuli were measured in rats as described.[52] To measure response to noxious heat stimuli, each animal was placed in a Plexiglas chamber on a glass plate located above a light box. Radiant heat was applied by focused infrared (IR) beam to the middle of the plantar surface of rat hindpaw. When the animal lifted its foot, the IR beam was turned off. The time interval between the start of the IR beam and the foot lift was defined as the paw withdrawal latency. Each trial was repeated 13 times at 20-min intervals for each paw. A cut-off time of 30 s was used to prevent paw tissue damage.
Figure 10. Ap4A analogs reduced thermal hyperalgesia induced by complete Freund adjuvant (CFA) (Hargreaves plantar test). (a) Time course of the effects of subcutaneous injection of AppCH2ppA (20 µM) and AppNHppA (20 µM) on the paw withdrawal latency (PWL). […] (b) Bar graphs illustrating the effects of AppCH2ppA (20 µM) and AppNHppA (20 µM) on PWL. (c) Time course of effects of intraplantar and intrathecal administration of AppCH2ppA (20 µM) on PWL. […] (d) Bar graphs illustrating effects of intathecal and intraplantar administration of AppCH2ppA (20 µM) on the PWL (* vs. CFA, p < 0.05; *** vs. CFA, p < 0.001; ### vs. intrathecal, p < 0.001; seven rats for control, eight rats for CFA, six rats for intrathecal, and six rats for each compound for intraplantar injection were used).

[2] = tested on: formalin-induced nociceptive behavior; assay: Formalin test (spontaneous jerking of the injected hindpaw); type: in vivo, rat; settings: for in vivo IC50 per animal body weight: calculated from effective concentrations in formalin model; for IC50: locally administered concentration, coinjection with formalin
Description: All animal experiments were carried out in accordance with the “Guide for the Care and Use of Laboratory Animals” as adopted by the Bogomoletz Institute of Physiology Clinic of Animal Care and Use. The formalin test experiments were performed on 21-day-old male Wistar rats, weighing 40 ± 5 g according to the method described previously.[49],[50] Briefly, animal was acclimated to an acrylic observation chamber for at least 1 h before the injection of formalin (50 µl of 0.5% solution in 0.9% saline) into the dorsal surface of the right hindpaw. Immediately after the injection, each animal was returned to the observation chamber and its behavioral characteristics were recorded for 45 min. We noticed consistently observed type of response: spontaneous jerking of the injected paw. The number of jerks was measured for each 1-min block, using self-developed computer software.
Figure 8. Effects of subcutaneous Ap4A analogs on pain responses induced by intraplantar (right hindpaw) formalin injection. Rats were subcutaneously injected with formalin solution alone (0.5%, 50 µl, control) or coinjected with the formalin solution and solutions with AppCH2ppA (1 µM–100 µM, 100 µl) or AppNHppA (0.1 µM–100 µM, 100 µl). Age-matched control animals were injected with saline. (a) Time course of the effects of subcutaneous AppCH2ppA (left) and AppNHppA (right) on the number of the spontaneous jerkings of the injected paw. (b) Bar graphs of the effects of AppCH2ppA (b, c) and AppNHppA (d, e) on the integral number of spontaneous jerkings. Measurements were made during the acute phase (0–6 min) and tonic phase (7–45 min) of the formalin response. (f) Dose-response curves for AppCH2ppA (left) and AppNHppA (right) during tonic and acute phases. For each concentration 6–7 rats were used.

Structure (SMILES)	duration of antinociceptive effect, intraplantar ([1]; intraplantar) [min]	pain inhibition, intraplantar administration ([1]; intraplantar) [%]	time after intraplantar injection at which effect became potent ([1]; intraplantar) [min]	period after intraplantar injection in which antinociceptive effect was observed ([1]; intraplantar) [min]	duration of antinociceptive effect, intrathecal ([1]; intrathecal) [min]	pain inhibition, intrathecal administration ([1]; intrathecal) [%]	time after intrathecal injection at which effects were observed ([1]; intrathecal) [min]	in vivo IC50 per animal body weight [2]	IC50 ([2]; acute phase, read-out: IC50 in the acute phase of formalin test) [nM]	IC50 ([2]; tonic phase 7–45 min, read-out: IC50 in the tonic phase of formalin test) [nM]	IC50 ([2]; Rattus norvegicus, acute phase, read-out: IC50 in the acute phase of formalin test) [nM]	IC50 ([2]; Rattus norvegicus, tonic phase 7–45 min, read-out: IC50 in the tonic phase of formalin test) [nM]
Nc1ncnc2c1ncn2[C@@H]1O[C@H](COP(=O)(O)OP(=O)(O)CP(=O)(O)OP(=O)(O)OC[C@H]2O[C@@H](n3cnc4c(N)ncnc43)C(O)C2O)C(O)C1O (stereo partly drawn) [AppCH2ppA, diadenosine 5′,5′′′-P^1,P^4-(β,γ-methylene)tetraphosphate]	180	58	20	≤ 200	60	22	120	0.72 nmol/kg and 0.61 µg/kg	34700 ± 13200	290 ± 50		
Nc1ncnc2c1ncn2[C@@H]1O[C@H](COP(=O)(O)OP(=O)(O)NP(=O)(O)OP(=O)(O)OC[C@H]2O[C@@H](n3cnc4c(N)ncnc43)[C@H](O)[C@@H]2O)[C@@H](O)[C@H]1O [AppNHppA, diadenosine 5′,5′′′-P^1,P^4-(β,γ-imido)tetraphosphate]	180		20	≤ 200				0.28 nmol/kg and 0.23 µg/kg			> 100000	110 ± 20
